Numbered stars: 1 amine (or outer) side, 2 acyl side, 3 side chain; on linkers, the order of the positions; unused ones are H or OH. Square brackets hold non-standard residues; d marks the D form. Side chains are listed from the residue outwards. Peptide text beside a SMILES is read from it. * marks the point of attachment. C20 diacid = O=C(O)CCCCCCCCCCCCCCCCCCC(=O)*; C18 diacid = O=C(O)CCCCCCCCCCCCCCCCC(=O)*; αMePhe(2-F) = C[C@](N)(Cc1ccccc1F)C(=O)O; γGlu = O=C(O)[C@H](CCC(=O)[*:2])N[*:1]; αMeL = CC(C)C[C@](C)(N)C(=O)O; AEEA = NCCOCCOCC(=O)O; Aib = CC(C)(N)C(=O)O
Assays:
[1] = target: T1, human GLP-1R (Homo sapiens, UniProt P43220); assay: GLP-1R HEK293 cell membrane [35S]GTPγS binding assay; format: biochemical; design: expressed in transfected cells; host or cells: HEK293 cells expressing human GLP-1R; membranes; settings: HEK293 cell membranes expressing human GLP-1R, [35S]GTPγS binding; read-out: hGLP1R GTPgS Rel EC50 nM (SEM, n)
Method in brief: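 Agonist-driven Gαs activation read as [35S]GTPγS ([…]) binding to receptor-expressing HEK293 membranes, 30 min at room temperature, pH 7.4. Detection by anti-Gαs immunocapture on scintillation beads; EC50 derived from four-parameter logistic concentration-response fit.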

[2] = target: T1, human GLP-1R; assay: GLP-1R CHO cell β-arrestin recruitment assay; format: cell-based; design: host or cells: CHO-K1 PathHunter cells, assay-ready frozen; settings: for EC50: CHO-K1 cells, PathHunter β-arrestin-2 recruitment, 0.1% casein, read-out: hGLP1R B-Arrestin2 Rel EC50 uM (SEM, n); for hGLP1R B-Arrestin2 % Top: normalized to GLP-1 maximum control
Method in brief: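 Peptide-induced β-arrestin-2 recruitment measured by enzyme-fragment complementation luminescence after 90 min at 37 °C plus 60 min detection at RT.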

[3] = target: T2, gastric inhibitory peptide receptor (GIPR) (Homo sapiens, UniProt P48546); assay: cAMP pharmacological functional assay in presence of casein, hGIPR; format: cell-based; settings: HEK293 cells expressing hGIPR, 0.1% Casein, geometric mean; read-out: hGIPR cAMP Rel EC50 nM (SEM, n)
T2 sequence (P48546 22-466): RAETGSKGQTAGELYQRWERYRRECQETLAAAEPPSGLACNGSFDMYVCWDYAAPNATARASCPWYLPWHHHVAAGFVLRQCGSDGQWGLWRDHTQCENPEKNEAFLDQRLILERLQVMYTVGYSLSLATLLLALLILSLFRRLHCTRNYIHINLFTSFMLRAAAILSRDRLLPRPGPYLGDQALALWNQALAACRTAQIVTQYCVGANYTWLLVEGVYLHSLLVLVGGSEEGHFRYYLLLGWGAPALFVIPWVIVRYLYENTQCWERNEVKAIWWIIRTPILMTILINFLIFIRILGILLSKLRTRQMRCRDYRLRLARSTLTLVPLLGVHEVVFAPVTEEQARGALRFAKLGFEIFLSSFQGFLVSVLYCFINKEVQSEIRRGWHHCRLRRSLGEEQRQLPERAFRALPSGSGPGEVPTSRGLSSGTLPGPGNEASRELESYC

[4] = target: human GLP-1 receptor (GLP-1R) (Homo sapiens, UniProt P43220); assay: cAMP pharmacological functional assay in presence of casein, hGLP-1R; format: cell-based; settings: HEK293 cells expressing hGLP-1R, 0.1% Casein, geometric mean; read-out: hGLP1R cAMP Rel EC50 nM (SEM, n)
[5] = target: T1, human GLP-1R; assay: [125I]-GLP-1 binding (SPA), human GLP-1 receptor; design: expressed in transfected cells; crude membranes; settings: read-out: hGLP1R Ki, (nM) (SEM, n)
Method in brief: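 Assay buffer: HEPES 25 mM, pH 7.4, CaCl2 2.5 mM, MgCl2 1 mM, with EDTA-free protease inhibitors. Receptor came from crude cell membranes prepared by homogenization and centrifugation at 4° C. IC50s came from four-parameter fits (maximum, minimum, IC50, Hill slope) and were expressed as Ki geometric means with SEM.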

[6] = target: T3, human Gcg receptor (Homo sapiens, UniProt P47871); assay: [125I]-Glucagon binding (SPA), human Gcg receptor; settings: read-out: hGLcgR Ki, nM (SEM, n)
T3 construct: expressed in transfected cells; crude membranes
Method in brief: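 Crude membranes from cells expressing the receptor, prepared by hypotonic lysis in 50 mM Tris HCl pH 7.5 with protease inhibitors, homogenization and differential centrifugation, were used in a WGA-bead SPA. Binding buffer: 25 mM HEPES pH 7.4, 2.5 mM CaCl2, 1 mM MgCl2, bacitracin, Tween-20.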

[7] = target: T4, human GIP receptor (Homo sapiens, UniProt P48546); assay: [125I]-GIP binding (SPA), human GIP receptor; settings: read-out: hGIPR Ki, nM (SEM, n)
T4 construct: expressed in transfected cells; crude membranes
T4 sequence (P48546 22-466): T2 sequence (P48546 22-466)

T1 sequence (P43220 24-463): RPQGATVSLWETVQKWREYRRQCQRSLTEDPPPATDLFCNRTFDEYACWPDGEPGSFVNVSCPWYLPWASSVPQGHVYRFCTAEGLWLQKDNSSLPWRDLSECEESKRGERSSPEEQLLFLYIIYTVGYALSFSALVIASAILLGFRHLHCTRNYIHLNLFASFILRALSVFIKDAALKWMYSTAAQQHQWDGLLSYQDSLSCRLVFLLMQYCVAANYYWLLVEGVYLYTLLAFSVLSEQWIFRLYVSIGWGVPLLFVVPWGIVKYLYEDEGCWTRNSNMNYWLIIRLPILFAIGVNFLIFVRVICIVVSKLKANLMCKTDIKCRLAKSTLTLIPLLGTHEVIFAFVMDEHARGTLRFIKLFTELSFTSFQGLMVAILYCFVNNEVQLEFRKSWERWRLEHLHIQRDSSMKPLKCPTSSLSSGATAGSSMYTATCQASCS
Chain of human GLP-1 receptor (GLP-1R) (P43220 24-463): as above
T3 sequence (P47871 26-477): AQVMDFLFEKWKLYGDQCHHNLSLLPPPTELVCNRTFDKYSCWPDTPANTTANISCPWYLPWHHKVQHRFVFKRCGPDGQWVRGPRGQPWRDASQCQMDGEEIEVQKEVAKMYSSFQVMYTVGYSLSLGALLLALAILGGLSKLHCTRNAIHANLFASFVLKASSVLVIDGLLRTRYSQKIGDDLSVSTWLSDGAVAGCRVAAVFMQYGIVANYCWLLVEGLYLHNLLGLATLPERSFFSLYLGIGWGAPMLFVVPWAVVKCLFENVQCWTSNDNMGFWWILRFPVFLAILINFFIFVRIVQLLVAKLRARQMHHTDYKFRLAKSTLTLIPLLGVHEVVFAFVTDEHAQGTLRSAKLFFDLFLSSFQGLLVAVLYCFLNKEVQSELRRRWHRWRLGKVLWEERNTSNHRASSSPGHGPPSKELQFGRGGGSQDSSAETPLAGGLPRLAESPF

Compound | EC50 [1] [nM] | EC50 [2] [µM] | hGLP1R B-Arrestin2 % Top [2] [%] | EC50 [3] [nM] | EC50 [4] [nM] | Ki [5] [nM] | Ki [6] [nM] | Ki [7] [nM]
CC[C@H](C)[C@H](NC(=O)[C@H](CC(C)C)NC(=O)[C@H](Cc1ccc(O)cc1)NC(=O)[C@H](CCC(=O)O)NC(=O)[C@@H](NC(=O)[C@H](Cc1ccccc1)NC(=O)[C@H](CCC(=O)O)NC(=O)C(C)(C)NC(=O)[C@H](CCC(N)=O)NC(=O)[C@H](C)NC(=O)[C@H](CCCCNC(=O)COCCOCCNC(=O)COCCOCCNC(=O)CC[C@H](NC(=O)CCCCCCCCCCCCCCCCCCC(=O)O)C(=O)O)NC(=O)[C@H](CCCCN)NC(=O)[C@H](CC(=O)O)NC(=O)[C@H](CC(C)C)NC(=O)[C@](C)(CC(C)C)NC(=O)[C@@H](NC(=O)[C@H](CO)NC(=O)[C@H](Cc1ccc(O)cc1)NC(=O)[C@H](CC(=O)O)NC(=O)[C@H](CO)NC(=O)[C@@H](NC(=O)[C@H](Cc1ccccc1)NC(=O)[C@@H](NC(=O)CNC(=O)[C@H](CCC(=O)O)NC(=O)C(C)(C)NC(=O)[C@H](N)Cc1ccc(O)cc1)[C@@H](C)O)[C@@H](C)O)[C@@H](C)CC)[C@@H](C)CC)C(=O)N[C@@H](C)C(=O)NCC(=O)NCC(=O)N1CCC[C@H]1C(=O)N[C@@H](CO)C(=O)N[C@@H](CO)C(=O)NCC(=O)N[C@@H](C)C(=O)N1CCC[C@H]1C(=O)N1CCC[C@H]1C(=O)N1CCC[C@H]1C(=O)N[C@@H](CO)C(N)=O [Example 290] (H-[dY][Aib]EGTFTSDYSI[αMeL]LDKK([AEEA-AEEA-γGlu-C20 diacid])AQ[Aib]EFIEYLIAGGPSSGAPPPS-NH2) | 0.466 | 0.0238 | 20.0 | 0.0629 | 0.179 | 2.44 | 308 | 0.0617
CC[C@H](C)[C@H](NC(=O)[C@H](CC(C)C)NC(=O)[C@H](Cc1ccc(O)cc1)NC(=O)[C@H](CCC(=O)O)NC(=O)[C@@H](NC(=O)[C@H](Cc1ccccc1)NC(=O)[C@H](C)NC(=O)C(C)(C)NC(=O)[C@H](CCC(N)=O)NC(=O)[C@H](C)NC(=O)[C@H](CCCCNC(=O)COCCOCCNC(=O)COCCOCCNC(=O)CC[C@H](NC(=O)CCCCCCCCCCCCCCCCCCC(=O)O)C(=O)O)NC(=O)[C@H](CCCCN)NC(=O)[C@H](CC(=O)O)NC(=O)[C@H](CC(C)C)NC(=O)[C@](C)(CC(C)C)NC(=O)[C@@H](NC(=O)[C@H](CO)NC(=O)[C@H](Cc1ccc(O)cc1)NC(=O)[C@H](CC(=O)O)NC(=O)[C@H](CO)NC(=O)[C@@H](NC(=O)[C@H](Cc1ccccc1)NC(=O)[C@@H](NC(=O)CNC(=O)[C@H](CCC(=O)O)NC(=O)C(C)(C)NC(=O)[C@H](N)Cc1ccc(O)cc1)[C@@H](C)O)[C@@H](C)O)[C@@H](C)CC)[C@@H](C)CC)C(=O)N[C@@H](C)C(=O)NCC(=O)NCC(=O)N1CCC[C@H]1C(=O)N[C@@H](CO)C(=O)N[C@@H](CO)C(=O)NCC(=O)N[C@@H](C)C(=O)N1CCC[C@H]1C(=O)N1CCC[C@H]1C(=O)N1CCC[C@H]1C(=O)N[C@@H](CO)C(N)=O [Example 340] (H-[dY][Aib]EGTFTSDYSI[αMeL]LDKK([AEEA-AEEA-γGlu-C20 diacid])AQ[Aib]AFIEYLIAGGPSSGAPPPS-NH2) | 0.45 | 0.0107 | 20.1 | 0.0823 | 0.252 | 2.08 | 250 | 0.0507
CC[C@H](C)[C@H](NC(=O)[C@H](CC(C)C)NC(=O)[C@H](Cc1ccc(O)cc1)NC(=O)[C@H](CCC(=O)O)NC(=O)[C@@H](NC(=O)[C@H](Cc1ccccc1)NC(=O)[C@H](C)NC(=O)C(C)(C)NC(=O)[C@H](CCC(N)=O)NC(=O)[C@H](C)NC(=O)[C@H](CCCCNC(=O)COCCOCCNC(=O)COCCOCCNC(=O)CC[C@H](NC(=O)CCCCCCCCCCCCCCCCC(=O)O)C(=O)O)NC(=O)[C@H](CCCCN)NC(=O)[C@H](CC(=O)O)NC(=O)[C@H](CC(C)C)NC(=O)[C@H](CC(C)C)NC(=O)[C@@H](NC(=O)[C@H](CO)NC(=O)[C@H](Cc1ccc(O)cc1)NC(=O)[C@H](CC(=O)O)NC(=O)[C@H](CO)NC(=O)[C@@H](NC(=O)[C@](C)(Cc1ccccc1F)NC(=O)[C@@H](NC(=O)CNC(=O)[C@H](CCC(=O)O)NC(=O)C(C)(C)NC(=O)[C@@H](N)Cc1ccc(O)cc1)[C@@H](C)O)[C@@H](C)O)[C@@H](C)CC)[C@@H](C)CC)C(=O)N[C@@H](CCC(=O)O)C(=O)NCC(=O)NCC(=O)N1CCC[C@H]1C(=O)N[C@@H](CO)C(=O)N[C@@H](CO)C(=O)NCC(N)=O [Example 302] (H-Y[Aib]EGT[αMePhe(2-F)]TSDYSILLDKK([AEEA-AEEA-γGlu-C18 diacid])AQ[Aib]AFIEYLIEGGPSSG-NH2) | 0.268 | 0.00219 | 98.4 | 0.0308 | 0.0275 | 0.617 | 18.5 | 0.0289
CC[C@H](C)[C@H](NC(=O)[C@H](CC(C)C)NC(=O)[C@H](Cc1ccc(O)cc1)NC(=O)[C@H](CCC(=O)O)NC(=O)[C@@H](NC(=O)[C@H](Cc1ccccc1)NC(=O)[C@H](C)NC(=O)C(C)(C)NC(=O)[C@H](CCC(N)=O)NC(=O)[C@H](C)NC(=O)[C@H](CCCCNC(=O)COCCOCCNC(=O)COCCOCCNC(=O)CC[C@H](NC(=O)CCCCCCCCCCCCCCCCC(=O)O)C(=O)O)NC(=O)[C@H](CCCCN)NC(=O)[C@H](CC(=O)O)NC(=O)[C@H](CC(C)C)NC(=O)[C@H](CC(C)C)NC(=O)[C@@H](NC(=O)[C@H](CO)NC(=O)[C@H](Cc1ccc(O)cc1)NC(=O)[C@H](CC(=O)O)NC(=O)[C@H](CO)NC(=O)[C@@H](NC(=O)[C@H](Cc1ccccc1)NC(=O)[C@@H](NC(=O)CNC(=O)[C@H](CCC(=O)O)NC(=O)C(C)(C)NC(=O)[C@@H](N)Cc1ccc(O)cc1)[C@@H](C)O)[C@@H](C)O)[C@@H](C)CC)[C@@H](C)CC)C(=O)N[C@@H](CCC(=O)O)C(=O)NCC(=O)NCC(=O)N1CCC[C@H]1C(=O)N[C@@H](CO)C(=O)N[C@@H](CO)C(=O)NCC(=O)N[C@@H](C)C(=O)N1CCC[C@H]1C(=O)N1CCC[C@H]1C(=O)N1CCC[C@H]1C(=O)N[C@@H](CO)C(N)=O [Example 315] | 0.601 | 0.0199 | 25.4 | 0.0408 | 0.0651 | 2.28 | 539 | 0.0677
CC[C@H](C)[C@H](NC(=O)[C@H](CC(C)C)NC(=O)[C@H](Cc1ccc(O)cc1)NC(=O)[C@@H](CCC(=O)O)NC(=O)[C@@H](NC(=O)[C@H](Cc1ccccc1)NC(=O)[C@H](C)NC(=O)C(C)(C)NC(=O)[C@H](CCC(N)=O)NC(=O)[C@H](C)NC(=O)[C@H](CCCCNC(=O)COCCOCCNC(=O)COCCOCCNC(=O)CC[C@H](NC(=O)CCCCCCCCCCCCCCCCCCC(=O)O)C(=O)O)NC(=O)[C@H](CCCCN)NC(=O)[C@H](CC(=O)O)NC(=O)[C@H](CC(C)C)NC(=O)[C@](C)(CC(C)C)NC(=O)[C@@H](NC(=O)[C@H](CO)NC(=O)[C@H](Cc1ccc(O)cc1)NC(=O)[C@H](CC(=O)O)NC(=O)[C@H](CO)NC(=O)[C@@H](NC(=O)[C@H](Cc1ccccc1)NC(=O)[C@@H](NC(=O)CNC(=O)[C@H](CCC(=O)O)NC(=O)C(C)(C)NC(=O)[C@H](N)Cc1ccc(O)cc1)[C@@H](C)O)[C@@H](C)O)[C@@H](C)CC)[C@@H](C)CC)C(=O)N[C@@H](C)C(=O)NCC(=O)NCC(=O)N1CCC[C@H]1C(=O)N[C@@H](CO)C(=O)N[C@@H](CO)C(=O)NCC(=O)N[C@@H](C)C(=O)N1CCC[C@H]1C(=O)N1CCC[C@H]1C(=O)N1CCC[C@H]1C(=O)N[C@@H](CO)C(N)=O [Example 352] (H-[dY][Aib]EGTFTSDYSI[αMeL]LDKK([AEEA-AEEA-γGlu-C20 diacid])AQ[Aib]AFI[dE]YLIAGGPSSGAPPPS-NH2) | 0.552 | 0.00421 | 17.4 | 0.127 | 0.142 | 3.03 | > 1030 | 0.0726

Reference: patent publication US12252524B2, “GIP/GLP1 co-agonist compounds” (Eli Lilly and Company, priority 2018, dated 2025)
